Assay results published in article PMC11203978, “Discovery of Di(het)arylmethane and Dibenzoxanthene Derivatives as Potential Anticancer Agents” (International Journal of Molecular Sciences, 2024).
Where a name gives a salt, the structure may show the parent alone. Read-outs that look alike come from different tables or passages of the source.

Tests used:
M-HeLa = test: MTT cytotoxicity, M-HeLa; type: cell-based, human; settings: MTT, 48 h incubation, read-out: IC50 (µM) Cancer Cell Lines M-HeLa
Description: (§1) Cells and Materials. For the experiments, we used tumor cell cultures M-HeLa clone 11 (epithelioid carcinoma of the cervix, subline HeLa, clone M-HeLa), HuTu 80, human duodenal adenocarcinoma, Hep-2, human epithelial cells, SH-SY5Y, human neuroblast-like cells, A549, human lung adenocarcinoma, PA-1, human ovarian teratocarcinoma and MCF-7, a human mammary ductal adenocarcinoma from the collection of the Institute of Cytology, Russian Academy of Sciences (St. Petersburg, Russia); human liver cells (Chang liver) were from the collection and the Research Institute of Virology of the Russian Academy of Medical Sciences (Moscow, Russia).
(§2) MTT Assay. The cytotoxic effect on cells was determined using the colorimetric method of cell proliferation—the MTT test. NADP-H-dependent cellular oxidoreductase enzymes can, under certain conditions, reflect the number of viable cells. These enzymes reduce the tetrazolium dye (MTT) 3-(4,5-dimethylthiazol-2-yl)-2,5-diphenyl-tetrazolium bromide to insoluble blue-violet formazan, which crystallizes inside the cell. The amount of formed formazan is proportional to the number of cells with active metabolism. Cells were seeded on a 96-well Nunc plate at a concentration of 5 × 10^3 cells per well in a volume of 100 μL of medium and cultured in a CO2 incubator at 37 °C until a monolayer was formed. After the nutrient medium was removed, 100 µL of the test drug solutions at the given dilutions were added to the wells, which were prepared directly in the nutrient medium with the addition of 5% DMSO to improve solubility. After 48 h of incubation of the cells with the tested compounds, the nutrient medium was removed from the plates and 100 µL of the nutrient medium without serum with MTT at a concentration of 0.5 mg/mL was added and incubated for 4 h at 37 °C. Formazan crystals were added 100 µL of DMSO to each well. Optical density was recorded at 540 nm on an Invitrologic microplate reader (Novosibirsk, Russia). The experiments for all compounds were repeated three times.
(§3) Statistical analysis. The IC50 values were calculated using the MLA–Quest Graph™ IC50 Calculator (AAT Bioquest, Inc., Sunnyvale, CA, USA), 14 February 2022. Statistical analysis was performed with the Mann–Whitney test (p < 0.05). Tabular and graphical data contain averages and standard error.

HuTu 80 = test: MTT cytotoxicity, HuTu 80; type: cell-based, human; settings: for IC50: MTT, 48 h incubation, read-out: IC50 (µM) Cancer Cell Lines HuTu 80; for Selectivity index (SI) = IC50(normal)/IC50(tumoral): Chang liver vs HuTu 80
Description: as §1, §2, §3

Chang Liver = test: MTT cytotoxicity, normal Chang liver cells; type: cell-based, human; settings: 48 h incubation, read-out: IC50 (µM) Normal Cell Line Chang Liver
Description: as §1, §2, §3

Row | Compound | IC50 (M-HeLa; Homo sapiens, M-HeLa) | IC50 (HuTu 80; Homo sapiens, HuTu80, 48 h) | IC50 (Chang Liver; Homo sapiens, Chang liver) | melting point | IC50 (M-HeLa) | IC50 (HuTu 80) | IC50 (Chang Liver) | Selectivity index (SI) = IC50(normal)/IC50(tumoral) (HuTu 80) | IC50 (HuTu 80; Homo sapiens, HuTu80)
1 | O=C(C[P+](c1ccccc1)(c1ccccc1)c1ccccc1)NCCC(c1cc2c(cc1O)OCO2)c1cc2c(cc1O)OCO2 [Compound 7b] | 65.8 ± 5.8 µM | 55.4 ± 4.5 µM | > 100 µM | > 250 °C | – | – | – | – | –
2 | O=C(CCl)NCCCC(c1cc2c(cc1O)OCO2)c1cc2c(cc1O)OCO2 [Compound 4c] | > 100 µM | > 100 µM | > 100 µM | 189 to 191 °C | – | – | – | – | –
3 | O=C(CCl)NCCC1c2c(ccc3ccccc23)Oc2ccc3ccccc3c21 [Compound 3c] | 49.6 ± 3.9 µM | 29.3 ± 2.1 µM | > 100 µM | 147 to 149 °C | – | – | – | – | –
4 | C[P+](CC(=O)NCCC1c2c(ccc3ccccc23)Oc2ccc3ccccc3c21)(c1ccccc1)c1ccccc1 (as salt: salt) [Compound 6b] | – | – | – | 161 to 162 °C | – | – | – | – | –
5 | COC(CNC(=O)CCl)OC [Compound 2a] | > 100 µM | > 100 µM | > 100 µM | – | – | – | – | – | –
6 | O=C(NCC(c1cc2c(cc1O)OCO2)c1cc2c(cc1O)OCO2)c1nc2ccccc2[nH]1 [Compound 12a] | – | – | – | 216 to 217 °C | – | – | – | – | –
7 | O=C(CCl)NCCCC1c2c(ccc3ccc(O)cc23)Oc2ccc3ccc(O)cc3c21 [Compound 3f] | – | – | – | 180 °C | – | – | – | – | –
8 | COC(CNC(=O)c1nc2ccccc2[nH]1)OC [Compound 10a] | – | – | – | – | > 100 µM | > 100 µM | > 100 µM | – | –
9 | O=C(C[n+]1ccccc1)NCCC1c2c(ccc3ccccc23)Oc2ccc3ccccc3c21.[Cl-] [Compound 8] | 85.2 ± 7.4 µM | 58.4 ± 4.6 µM | 100 ± 9.2 µM | 156 °C | – | – | – | – | –
10 | O=C(C[P+](c1ccccc1)(c1ccccc1)c1ccccc1)NCC(c1cc2c(cc1O)OCO2)c1cc2c(cc1O)OCO2 [Compound 7a] | 73.5 ± 6.2 µM | 59.7 ± 4.6 µM | > 100 µM | 178 to 181 °C | – | – | – | – | –
11 | O=C(C[P+](c1ccccc1)(c1ccccc1)c1ccccc1)NCCCC1c2c(ccc3ccccc23)Oc2ccc3ccccc3c21 [Compound 6c] | 26.6 ± 1.9 µM | 7.3 ± 0.6 µM | 33.4 ± 2.8 µM | 204 to 205 °C | – | – | – | 4.6 | –
12 | O=C(NCC1c2c(ccc3ccccc23)Oc2ccc3ccccc3c21)c1nc2ccccc2[nH]1 [Compound 11a] | > 100 µM | > 100 µM | > 100 µM | 216 °C | – | – | – | – | –
13 | O=C(NCC(c1c(O)c2ccccc2oc1=O)c1c(O)c2ccccc2oc1=O)c1nc2ccccc2[nH]1 | – | – | – | 263 to 265 °C | – | – | – | – | –
14 | C[P+](CC(=O)NCCC1c2c(ccc3ccccc23)Oc2ccc3ccccc3c21)(c1ccccc1)c1ccccc1 [Compound 6b] | 28.4 ± 1.8 µM | 64.3 ± 5.2 µM | > 100 µM | – | – | – | – | – | –
15 | O=C(CCl)NCC1c2c(ccc3ccc(O)cc23)Oc2ccc3ccc(O)cc3c21 [Compound 3b] | 96.4 ± 8.4 µM | 53.9 ± 4.3 µM | 78.2 ± 6.8 µM | > 250 °C | – | – | – | – | –
16 | O=C(CCl)NCCC(c1c(O)c2ccccc2oc1=O)c1c(O)c2ccccc2oc1=O [Compound 5b] | 65.3 ± 5.4 µM | – | 68.1 ± 5.4 µM | 134 °C | – | – | – | – | 52.1 ± 4.2 µM
17 | Cc1cc(O)c(C(CCNC(=O)c2nc3ccccc3[nH]2)c2c(O)cc(C)oc2=O)c(=O)o1 [Compound 12c] | – | – | – | 189 to 191 °C | – | – | – | – | –
18 | O=C(NCC1c2c(ccc3ccc(O)cc23)Oc2ccc3ccc(O)cc3c21)c1nc2ccccc2[nH]1 [Compound 11b] | 94.3 ± 7.9 µM | 11.5 ± 0.9 µM | 53.1 ± 4.3 µM | 224 to 225 °C | – | – | – | – | –
19 | O=C(CCl)NCCCC1c2c(ccc3ccccc23)Oc2ccc3ccccc3c21 [Compound 3e] | 56.6 ± 4.4 µM | > 100 µM | 73.3 ± 6.4 µM | 164 to 165 °C | – | – | – | – | –
20 | CNC(=O)c1cc(Oc2ccc(NC(=O)Nc3ccc(Cl)c(C(F)(F)F)c3)cc2)ccn1 [Sorafenib, reference compound] | 35.6 ± 2.8 µM | 5 ± 0.4 µM | 35 ± 2.7 µM | – | – | – | – | 7 | –
21 | O=C(CCl)NCCC1c2c(ccc3ccc(O)cc23)Oc2ccc3ccc(O)cc3c21 [Compound 3d] | 38.4 ± 2.7 µM | 18.1 ± 1.4 µM | 54.8 ± 4.4 µM | 137 to 139 °C | – | – | – | 3 | –
22 | O=C(C[n+]1ccccc1)NCCC(c1cc2c(cc1O)OCO2)c1cc2c(cc1O)OCO2 [Compound 9b] | 97.8 ± 8.2 µM | > 100 µM | 95.4 ± 8.7 µM | 159 °C | – | – | – | – | –
23 | C[P+](CC(=O)NCCCC1c2c(ccc3ccccc23)Oc2ccc3ccccc3c21)(c1ccccc1)c1ccccc1 [Compound 6d] | 53.2 ± 4.6 µM | 18.5 ± 1.5 µM | 56.2 ± 4.7 µM | 199 to 200 °C | – | – | – | 3 | –
24 | O=C(CCl)NCCC(c1cc2c(cc1O)OCO2)c1cc2c(cc1O)OCO2 [Compound 4b] | 84.6 ± 7.5 µM | 26.2 ± 1.7 µM | > 100 µM | 166 to 168 °C | – | – | – | – | –
25 | CCOC(CCNC(=O)CCl)OCC [Compound 2b] | > 100 µM | > 100 µM | > 100 µM | – | – | – | – | – | –
26 | O=C(CCl)NCC(c1cc2c(cc1O)OCO2)c1cc2c(cc1O)OCO2 [Compound 4a] | > 100 µM | > 100 µM | > 100 µM | 180 to 182 °C | – | – | – | – | –
27 | O=C(CCl)NCC(c1c(O)c2ccccc2oc1=O)c1c(O)c2ccccc2oc1=O | – | – | – | 187 to 188 °C | – | – | – | – | –
28 | O=C(C[n+]1ccccc1)NCC(c1cc2c(cc1O)OCO2)c1cc2c(cc1O)OCO2 [Compound 9a] | > 100 µM | > 100 µM | > 100 µM | 178 to 180 °C | – | – | – | – | –
29 | COc1cccc2c1C(=O)c1c(O)c3c(c(O)c1C2=O)C[C@@](O)(C(=O)CO)C[C@@H]3O[C@H]1C[C@H](N)[C@H](O)[C@H](C)O1 [Doxorubicin, reference compound] | 3 ± 0.2 µM | 3 ± 0.2 µM | 3 ± 0.1 µM | – | – | – | – | 1 | –
30 | O=C(CCl)NCC1c2c(ccc3ccccc23)Oc2ccc3ccccc3c21 [Compound 3a] | > 100 µM | > 100 µM | > 100 µM | 200 to 203 °C | – | – | – | – | –
